Data: patent US11802120B2, “Fused cyclic urea derivatives as CRHR2 antagonist” (RaQualia Pharma Inc., priority 2018, dated 2023)

What follows are compounds tested against T1, human CRHR2-alpha (Homo sapiens, UniProt Q13324) (assay: cAMP functional assay for human CRHR2 (LANCE Ultra cAMP, TR-FRET)). Details: CHO-K1 cells expressing human CRHR2-alpha, agonist human urocortin2 at EC80, cAMP; read-out: IC50 against CRHR2.
T1 sequence (Q13324 1-411): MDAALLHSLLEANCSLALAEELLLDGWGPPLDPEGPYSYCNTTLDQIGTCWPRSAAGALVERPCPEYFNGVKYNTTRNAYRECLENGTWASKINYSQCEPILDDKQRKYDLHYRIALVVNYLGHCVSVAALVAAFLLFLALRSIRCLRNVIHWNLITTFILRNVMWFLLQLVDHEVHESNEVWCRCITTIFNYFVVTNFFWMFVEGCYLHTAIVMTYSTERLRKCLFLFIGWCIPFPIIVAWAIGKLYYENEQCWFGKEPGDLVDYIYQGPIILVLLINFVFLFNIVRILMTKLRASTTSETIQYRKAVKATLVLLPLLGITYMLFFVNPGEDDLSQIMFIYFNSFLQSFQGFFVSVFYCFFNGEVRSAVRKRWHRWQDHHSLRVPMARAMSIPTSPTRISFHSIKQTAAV
Type: cell-based
Procedure, shortened: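 First, starved and frozen CHO-K1 cells expressing the receptor are thawed into IBMX-containing HBSS buffer (pH 7.4). Next, compounds are added for 30 min at 25° C. Then agonist at EC80 (urocortin2 or CRF, per receptor) is added for another 30 min, followed by cAMP detection reagents.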
In the case of `Cc1ncc(Cl)cc1C(=O)N[C@H]1CC[C@H](Cn2c(=O)n(-c3ccc(-c4ncco4)cc3)c3ccccc32)CC1` [Example 451, 5-chloro-2-methyl-N-((1r,4r)-4-((3-(4-(oxazol-2-yl)phenyl)-2-oxo-2,3-dihydro-1H-benzo [d]imidazol-1-yl)methyl)cyclo-hexyl)nicotinamide], the IC50 is reported as less than 0.3 µM. In the case of `CCC(=O)Nc1ccc(-n2c(=O)n(C[C@H]3CC[C@H](NC(=O)c4cc(Cl)cnc4C(F)F)CC3)c3ccccc32)cn1` [Example 510, 5-chloro-2-(difluoromethyl)-N-((1r,4r)-4-((2-oxo-3-(6-propionamidopyridin-3-yl)-2,3-dihydro-1H-benzo[d]imidazol-1-yl)methyl)cyclo-hexyl)nicotinamide], the IC50 is reported as less than 0.3 µM. For `Cc1ncc(Cl)cc1C(=O)N[C@H]1CC[C@H](Cn2c(=O)n(-c3ccc(C(=O)Nc4cccnc4)nc3)c3ccccc32)CC1` [Example 177, 5-(3-(((1r,4r)-4-(5-chloro-2-methylnicotinamido)cyclo-hexyl)methyl)-2-oxo-2,3-dihydro-1H-benzo[d]imidazol-1-yl)-N-(pyridin-3-yl) picolinamide], the IC50 was less than 0.3 µM. With `CNC(=O)c1cc(C)c(-n2c(=O)n(C[C@H]3CC[C@H](NC(=O)c4cc(Cl)cnc4C(F)(F)F)CC3)c3ccccc32)cn1` [Example 313, 5-(3-(((1r,4r)-4-(5-chloro-2-(trifluoromethyl)nico-tinamido)cyclohexyl)methyl)-2-oxo-2,3-dihydro-1H-benzo[d]imidazol-1-yl)-N,4-dimethylpicolinamide] the IC50 was less than 0.3 µM. `Cc1ncc(Cl)cc1C(=O)N[C@H]1CC[C@H](Cn2c(=O)n(-c3ccc(-n4ccnc4)cc3)c3ccccc32)CC1` [Example 468, N-((1r,4r)-4-((3-(4-(1H-imidazol-1-yl)phenyl)-2-oxo-2,3-dihydro-1H-benzo[d]imidazol-1-yl)methyl)cyclo-hexyl)-5-chloro-2-methyl-nicotinamide] showed an IC50 of less than 0.3 µM. `COCCOc1cncc(-n2c(=O)n(C[C@H]3CC[C@H](NC(=O)c4cc(Cl)cnc4C)CC3)c3ccccc32)c1` [Example 486, 5-chloro-N-((1r,4r)-4-((3-(5-(2-methoxyethoxy)pyridin-3-yl)-2-oxo-2,3-dihydro-1H-benzo[d]imidazol-1-yl)methyl)cyclo-hexyl)-2-methylnicotinamide] gave an IC50 of less than 0.3 µM. Work on `CN(CCO)c1ccc(-n2c(=O)n(C[C@H]3CC[C@H](NC(=O)c4cc(Cl)cnc4C(F)F)CC3)c3ccccc32)cn1` [Example 382, 5-chloro-2-(difluoromethyl)-N-((1r,4r)-4-((3-(6-((2-hydroxyethyl)(methyl)amino)pyridin-3-yl)-2-oxo-2,3-dihydro-1H-benzo[d]imidazol-1-yl)methyl)cyclohexyl)nicotinamide] yielded an IC50 of less than 0.3 µM. Work on `CC(=O)Nc1ccc(-n2c(=O)n(C[C@H]3CC[C@H](NC(=O)c4cc(Cl)cnc4C(F)F)CC3)c3ccccc32)cn1` [Example 508, N-((1r,4r)-4-((3-(6-aceta-midopyridin-3-yl)-2-oxo-2,3-dihydro-1H-benzo[d]imidazol-1-yl)methyl)cyclo-hexyl)-5-chloro-2-(difluoro-methyl)nicotinamide] yielded an IC50 of less than 0.3 µM. In the case of `COc1ncc(-n2c(=O)n(C[C@H]3CC[C@H](NC(=O)c4cc(Cl)cnc4C)CC3)c3ccccc32)cc1C` [Example 120, 5-chloro-N-((1r,4r)-4-((3-(6-methoxy-5-methylpyridin-3-yl)-2-oxo-2,3-dihydro-1H-benzo[d]imidazol-1-yl)methyl)cyclohexyl)-2-methylnicotinamide], the IC50 is reported as less than 0.3 µM. With `Cc1ncc(Cl)cc1C(=O)N[C@H]1CC[C@H](Cn2c(=O)n(-c3cncc(N4CCCC4)c3)c3ccccc32)CC1` [Example 482, 5-chloro-2-methyl-N-((1r,4r)-4-((2-oxo-3-(5-(pyrrolidin-1-yl)pyridin-3-yl)-2,3-dihydro-1H-benzo[d]imidazol-1-yl)methyl)cyclohexyl)nicotinamide] the IC50 was less than 0.3 µM. Compound `CNC(=O)c1ccc(-n2c(=O)n(C[C@H]3CC[C@H](NC(=O)c4cc(Cl)cnc4C(F)F)CC3)c3ccc(OC)cc32)cn1` [Example 390, 5-(3-(((1r,4r)-4-(5-chloro-2-(difluoromethyl)nicotinamido)cyclohexyl)methyl)-6-me-thoxy-2-oxo-2,3-dihydro-1H-benzo[d]imidazol-1-yl)-N-methylpicolinamide] has an IC50 of less than 0.3 µM. Compound `CNC(=O)c1ccc(-n2c(=O)n(C[C@H]3CC[C@H](NC(=O)c4cc(Cl)cnc4C(F)F)CC3)c3cc(F)ccc32)cn1` [Example 530, 5-(3-(((1r,4r)-4-(5-chloro-2-(difluoromethyl)nicotinamido)cyclohexyl)methyl)-5-fluoro-2-oxo-2,3-dihydro-1H-benzo [d]imidazol-1-yl)-N-methylpicolinamide] has an IC50 of less than 0.3 µM. Compound `O=C(N[C@H]1CC[C@H](Cn2c(=O)n(-c3ccc4ncncc4c3)c3ccccc32)CC1)c1cc(Cl)cnc1C(F)F` [Example 394, 5-chloro-2-(difluoromethyl)-N-((1r,4r)-4-((2-oxo-3-(quinazolin-6-yl)-2,3-dihydro-1H-benzo[d]imidazol-1-yl)methyl)cyclohexyl)nicotinamide] has an IC50 of less than 0.3 µM. Work on `Cc1ncc(Cl)cc1C(=O)N[C@H]1CC[C@H](Cn2c(=O)n(-c3ccc(Br)nc3)c3ccccc32)CC1` [Example 66, N((1r,4r)-4-((3-(6-bromopyridin-3-yl)-2-oxo-2,3-dihydro-1H-benzo[d]imidazol-1-yl)methyl)cyclohexyl)-5-chloro-2-methylnicotinamide] yielded an IC50 of less than 0.3 µM. Compound `CCn1ncc2cc(-n3c(=O)n(C[C@H]4CC[C@H](NC(=O)c5cc(Cl)cnc5C)CC4)c4ccccc43)cnc21` [Example 250, 5-chloro-N-((1r,4r)-4-((3-(1-ethyl-1H-pyrazolo[3,4-b]pyridin-5-yl)-2-oxo-2,3-dihydro-1H-benzo[d]imidazol-1-yl)methyl)cyclo-hexyl)-2-methylnicotinamide] has an IC50 of less than 0.3 µM. `Cc1c[nH]c2ncc(-n3c(=O)n(C[C@H]4CC[C@H](NC(=O)c5cc(Cl)cnc5C(F)F)CC4)c4ccccc43)cc12` [Example 456, 5-chloro-2-(difluoromethyl)-N-((1r,4r)-4-((3-(3-methyl-1H-pyrrolo[2,3-b]pyridin-5-yl)-2-oxo-2,3-dihydro-1H-benzo[d]imidazol-1-yl)methyl)cyclohexyl)nicotinamide] gave an IC50 of less than 0.3 µM. Work on `Cc1ncc(Cl)cc1C(=O)N[C@H]1CC[C@H](Cn2c(=O)n(-c3ccc(N4CC(N(C)C)C4)nc3)c3ccccc32)CC1` [Example 161, 5-chloro-N-((1r,4r)-4-((3-(6-(3-(dimethylamino)azetidin-1-yl)pyridin-3-yl)-2-oxo-2,3-dihydro-1H-benzo[d]imidazol-1-yl)methyl)cyclohexyl)-2-methylnicotinamide] yielded an IC50 of less than 0.3 µM. Compound `Cc1ncc(Cl)cc1C(=O)N[C@H]1CC[C@H](Cn2c(=O)n(-c3ccc(-c4ccccc4CO)nc3)c3ccccc32)CC1` [Example 90, 5-chloro-N-((1r,4r)-4-((3-(6-(2-(hydroxymethyl)phenyl)pyridin-3-yl)-2-oxo-2,3-dihydro-1H-benzo[d]imidazol-1-yl)methyl)cyclohexyl)-2-methylnicotinamide] has an IC50 of less than 0.3 µM. `Cc1cc(-n2c(=O)n(C[C@H]3CC[C@H](NC(=O)c4cc(Cl)cnc4C)CC3)c3ccccc32)cnc1C` [Example 119, 5-chloro-N-((1r,4r)-4-((3-(5,6-dimethylpyridin-3-yl)-2-oxo-2,3-dihydro-1H-benzo[d]imidazol-1-yl)methyl)cyclo-hexyl)-2-methylnicotinamide] was tested, and the IC50 was less than 0.3 µM.
